Results taken from patent US20250000841A1, “Administration of Resiniferatoxin For Treatment of Prostate Cancer” (Sorrento Therapeutics, Inc., priority 2021, published 2025).

Experiments:
[1] = test system: human DU145 prostate carcinoma cells engrafted s.c.; assay: mouse xenograft tumor model, tumor volume over time; assay type: in vivo; settings: 0.1, 0.5 and 1 μg/dose, local (peritumoral) every other day from day 28 after engraftment, FIG. 3A
Description: (§1) FIGS. 3A, 3B and 3C show RTX inhibits prostate carcinoma progression in a cytostatic manner. […] RTX was administered locally (peritumorally) every other day at the indicated dose starting at 28 days after engraftment. The cytostatic activity appeared to be dose-independent in the tested range of 0.1-1 μg/dose. […] Scale, 100 μm. CD31+ blood vessel length and cleaved caspase 3 levels (expressed as median fluorescence intensity, MFI) are quantified in FIG. 3C.

[2] = test system: human DU145 prostate carcinoma xenograft tumor tissue; assay: H&E staining and immunofluorescence of dissected xenograft tumor tissues; assay type: in vivo, mouse; settings: immunofluorescence of tumor tissue, FIG. 3C
Description: as §1
Dissected tumor tissues were assessed by H&E staining and by immunofluorescence for CD31 (tumor vessel marker), DRAQ7 (nuclear marker), and cleaved caspase 3 (apoptotic cell maker). […] (FIG. 3B, upper row). […] (FIG. 3B, middle row).

[3] = test system: human prostate cancer cell line DU145; assay: proliferation assay, prostate cancer cell line DU145; assay type: cell-based; settings: DU145 cells cultured with varying amounts of RTX, FIG. 2C
Source text: (§2) Proliferation measurements were normalized to an untreated control.

[4] = test system: human prostate cancer cell line LNCaP; assay: proliferation assay, prostate cancer cell line LNCaP; assay type: cell-based; settings: LNCaP cells cultured with varying amounts of RTX, FIG. 2C
Source text: as §2

[5] = test system: tumor associated inflammatory cytokines (IL-6, IFNγ); assay: cytokine array of xenograft tumor tissue homogenates; assay type: in vivo, mouse
Source text: Reduced IL-6 expression in a dose-dependent manner is shown magnified (FIG. 4A).
Some studies of RTX have reported a potential to induce neurologic inflammatory responses. […] Tumor tissue homogenate samples from mouse xenograft tumor models described in Example B were taken at necroptic endpoint and analyzed for tumor associated inflammatory cytokine levels using a cytokine array (FIG. 4A).

Q: C=C(C)[C@]12C[C@@H](C)[C@@]34O[C@](Cc5ccccc5)(O[C@@H]1[C@@H]3C=C(COC(=O)Cc1ccc(O)c(OC)c1)C[C@]1(O)C(=O)C(C)=C[C@@H]41)O2 [RTX, Resiniferatoxin] was tested. Which “cytostatic efficacy (tumor volume)” value [1] did it give?
A: potent cytostatic efficacy in a dose-independent manner

Q: And the “tumor cell apoptosis (cleaved caspase 3 staining)” value ([2]; FIG. 3B lower row)?
A: tumor cell apoptosis increased

Q: And the “CD31+ tumor vasculature” value ([2]; FIG. 3B middle row)?
A: decreased contiguous CD31+ stained structures

Q: And the “proliferation (normalized to untreated control)” value [3]?
A: dose-dependent decreases in proliferation

Q: What about the “proliferation (normalized to untreated control)” value [4] of the same compound?
A: dose-dependent decreases in proliferation

Q: What about the “Cytokine Release Syndrome (inflammatory cytokine expression)” value ([5]; tumor homogenates taken at necroptic endpoint, FIG. 4A) of the same compound?
A: no indication of Cytokine Release Syndrome (CRS)

Q: What about the IFNγ expression ([5]; tumor homogenates, cytokine array) of the same compound?
A: did not induce elevated expression of IFNγ

Q: And the IL-6 expression ([5]; tumor homogenates, higher RTX doses, FIG. 4A-C)?
A: reduced expression
